# Columns and labels:
# plasmid DNA (pBS) = assay: 3-D test: protection of adsorbed plasmid DNA against singlet oxygen generated by illuminated methylene blue; type: biochemical; settings: for % Specific inhibition: methylene blue + light; for % Aspecific inhibition: on predamaged plasmid pBS^UV, absence of ROS
# From the text: The test used is a biological system of detecting damage (3-D test) on DNA captured on a microplate (Analytical Biochemistry, 1995, 232, 37-42). The damage is recognized by the repair enzymes and repaired by purified cellular extracts. The repair of the lesions involves a phase for excision and then resynthesis of the damaged and excised DNA fragment. During the reparative synthesis stage, one or more modified nucleotides (digoxigenylated dUTP or DIG-11-dUTP) are incorporated into the DNA. These nucleotides are then recognized by anti-DIG antibodies coupled to alkaline phosphatase. An alkaline phosphatase substrate (Lumi-Phos 530) is then added and the luminescent signal emitted is measured by a luminometer (Lumax 2, marketed by the company S.F.R.I.). The intensity of the signal obtained depends on the different parameters (extracts, salt concentration, quantity of DNA, reaction time and the like) including that relating to the number of lesions repaired, and therefore of lesions present on the DNA. A dose-response relationship is observed within the limit of 1 to 15 lesions per 6 kilobases for most of the lesions.
# This system is capable of repairing any type of lesion since all the enzymes for repairing DNA lesions are present and active in the extracts. The oxidative damage is therefore recognized in this system.
# The damage is caused by reactive oxygen species (ROS) by means of a system which induces the formation of lesions on the DNA adsorbed in a well, leading to the reading of a reparative synthesis signal. In the presence of a compound or of a mixture of compounds which make it possible to protect DNA as a result, for example, of antioxidant or anti-free radical properties, a decrease or even an elimination of the repair signal, a reflection of the quantity of lesions, is observed.
# ROS ^1 O2, a powerful electrophile which has a very short life, is generated by illumination of methylene blue. It therefore reacts very rapidly with the bases in the DNA and produces various types of damage such as modification of bases or loss of bases, which are very genotoxic.
# Ultrapurified plasmid DNA (pBS) (predominantly supercoiled form) is placed in contact with the wells sensitized by poly-lysine for 30 minutes at 30° C., with gentle shaking, at a concentration of 1 μg/ml in a volume of 50 μl. Under these conditions, the adsorption of the DNA is quantitative (about 40 ng per well).
# A positive control for repair, consisting of a plasmid predamaged by UV-C (called pBS^UV), is added.
# After incubation, the wells are washed twice with a solution of PBS supplemented with 0.1% Tween 20.
# A stock solution of methylene blue at 10 μg/ml is diluted to a concentration of 4 ng/ml in ultrapure water (MilliQ quality from Millipore).
# This solution is mixed in an equal volume with various dilutions of the samples, and 50 μl of the mixture (at 2 ng/ml of methylene blue) are added to the wells containing the adsorbed plasmid DNA. The wells are placed on ice and illuminated for 20 minutes with 2 lamps of 100 W, 30 cm apart.
# The four samples were tested at 3 dilutions.
# The dilutions were made 2X, in propylene glycol, in order to obtain the desired dilutions after addition of a volume of methylene blue solution of 4 ng/ml.
# In order to check that the decrease in the repair signal is not aspecific, the same dilutions (IX) are incubated under the same conditions on pBS^UV. […] An inhibition of the control repair signal for pBS^UV can, for example, be explained by a direct interaction of the sample with the DNA which blocks access of the lesions to the repair enzymes.
# These different dilutions were incubated on the nondamaged DNA (pBS) and illuminated in the absence of methylene blue. This test makes it possible to check that the product tested is not genotoxic.
# They are expressed as the percentage residual repair inhibition. The 0% value corresponds to the repair signal under the condition of methylene blue treatment alone. […]
# pancreatic elastase = molecular target: T1, pancreatic elastase (Sus scrofa, UniProt P00772); assay: Antielastase activity in sections of human skin explant (intact elastic fibers, image analysis); type: biochemical; settings: for % Inhibition of the elastase activity: elastase 5 IU/ml, 3 hours, 37° C.; for Inhibition (of elastase, graded 0 to +++): Table 8
# T1 construct: purchased Sigma E0258
# T1 sequence (P00772 27-266): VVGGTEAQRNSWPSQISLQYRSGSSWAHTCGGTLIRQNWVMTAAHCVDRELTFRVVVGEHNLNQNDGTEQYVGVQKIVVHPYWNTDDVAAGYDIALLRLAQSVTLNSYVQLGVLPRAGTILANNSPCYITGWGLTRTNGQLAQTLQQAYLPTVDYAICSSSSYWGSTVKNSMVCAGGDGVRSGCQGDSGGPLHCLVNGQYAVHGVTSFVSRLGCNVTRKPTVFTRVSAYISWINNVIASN
# From the text: The study of the antielastase activity represents a good indication of skin aging since it is now well known that the degradation of the elastic fibers present in the dermis involves endogenous elastases. The test used makes it possible to study the antielastase activity in vitro in sections of human skin explant. An application of purified elastase on a limited portion of the section is accompanied by degradation of the endogenous elastic fibers. The elastic fibers are stained with (+)-catechin. The percentage of intact elastic fibers per optical field is evaluated by image analysis. A product having antielastase activity makes it possible to preserve the integrity of the elastic fibers in the presence of purified elastase.
# A pancreatic elastase (type IV, reference E0258, Sigma) is used. The medium for incubation of the human skin sections ("vehicle") is 0.1 M Herpes buffer, adjusted to pH 7.5 with sodium hydroxide containing 0.1 M sodium chloride.
# The skin sections are produced from surgical waste collected after abdominal plastic surgery. The donor was a person. Explants of 1 cm in diameter are produced and they are deposited on a cork support and they are frozen at -80° C. Transverse sections 6 µm thick are produced with a cryomicrotome. The sections are fixed on glass slides and maintained hydrated with the vehicle during the test.
# The test products are tested at 0.5; 1 and 5% (v/v) in the vehicle.
# The elastatinal is tested at 0.01 and 0.1% (w/v) in the vehicle.
# The mercuric chloride is tested at 0.025 and 0.125% (w/v) in the vehicle.
# The dilutions of the test products and of the reference products are deposited on the skin sections in an amount of 100 μl per section (0.32 cm^2 in surface area), and preincubated for ten minutes at 37° C. Filter paper strips (0.16 cm^2 in surface area) impregnated with the vehicle alone (control vehicle) or containing pancreatic elastase at 5 international units (IU)/ml (control enzyme) are deposited on the sections. The slides are placed in a humid chamber at 37° C. for three hours.
# After incubation, the sections are rinsed with the incubation medium and stained with (+)-catechin. The activity of the enzyme in the absence and in the presence of the test products or of the reference products is evaluated by image analysis: the image of the stained sections is digitized on a video screen; a software for image analysis makes it possible to measure the amounts of gray in the binary images; the surface area occupied by the intact elastic fibers is measured. The results are expressed as percentage of intact elastic fibers per optical field.
# The percentage inhibition of the elastase activity of the test products and of the reference products is calculated with the aid of the following formula: [formula]
# The antielastase activity is determined under the conditions indicated in IV above.
# [1] = tested on: human epidermal keratinocytes; assay: Anti-free radical activity: hydroperoxides by fluorometry in UVA-irradiated keratinocytes; type: cell-based; settings: Keratinocyte, light or radiation study, 1.5 h, 0.1% (w/v), UVA 90 minutes (10 J/cm^2), read-out: % protection
# From the text: The cells are human epidermal keratinocytes. […] The cells are used at the sixth passage, they are inoculated at 1×10^5 cells per well into 6-well culture plates. They are used at confluence.
# It is quantified by a fluorometric method which detects the quantity of hydroperoxides which are metabolites of free radicals. An appropriate probe which converts to a fluorescent derivative in their presence is used, according to the method described by Keston A. S. and Brandt R. (The fluorometric analysis of ultramicro quantities of hydrogen peroxide, Anal. Biochem. 11, 1965, 1-5).
# The free radicals are generated at the cell culture level by irradiation with ultraviolet A rays. […]
# After irradiation, the keratinocytes are lyzed by the action of ultrasound. The cellular lysates are transferred into 96-well plates and analyzed by fluorimetry with the aid of a plate analyzer (excitation: 355 nm, emission: 460 nm).
# The results are expressed in fluorescence unit/culture well.
# The percentage protection of the test products or of the reference products R1 and R2 was calculated with the aid of the following formula: [formula]
# By convention, when the values measured in the presence of the test products or in the presence of the reference products were less than those of the "non-irradiated control", the percentage protection was expressed as 100%.
SMILES,% Specific inhibition (plasmid DNA (pBS); 0.01%),% Aspecific inhibition (plasmid DNA (pBS); 0.01%),protective properties on DNA towards singlet oxygen (in words) (plasmid DNA (pBS); 0.01 to 1%),% Specific inhibition (plasmid DNA (pBS); 0.1%),% Aspecific inhibition (plasmid DNA (pBS); 0.1%),% Specific inhibition (plasmid DNA (pBS); 1%),% Aspecific inhibition (plasmid DNA (pBS); 1%),other results
"CC1=C(/C=C/C(C)=C/C=C/C(C)=C/C=C/C=C(C)/C=C/C=C(C)/C=C/C2=C(C)CCCC2(C)C)C(C)(C)CCC1 [Control, β-carotene]",45%,0%,does not exhibit a dose-effect,53%,+2%,45%,0%,"aspecific effect / aspecificity (in words) (plasmid DNA (pBS); 0.01 to 1%): does not show, on the other hand, aspecificity"
"CC(C)C[C@H](NC(=O)N[C@H](C(=O)N[C@@H](CCC(N)=O)C(=O)N[C@@H](C)C=O)[C@@H]1CCNC(=N)N1)C(=O)O [Elastatinal, elastatinal]",,,,,,,,"% Inhibition of the elastase activity (pancreatic elastase; 0.01% (w/v)): 71.5%; % Inhibition of the elastase activity (pancreatic elastase; 0.01% (w/v), listed as elastatinal): 71%; % Inhibition of the elastase activity (pancreatic elastase; 0.1% (w/v)): 59.9%; % Inhibition of the elastase activity (pancreatic elastase; 0.1% (w/v), listed as elastatinal): 60%; Inhibition (of elastase, graded 0 to +++) (pancreatic elastase; 0.1% (w/v)): strongly inhibits"
"[Cl][Hg][Cl] [Mercuric chloride, mercuric chloride]",,,,,,,,"% Inhibition of the elastase activity (pancreatic elastase; 0.025% (w/v)): 18.4%; % Inhibition of the elastase activity (pancreatic elastase; 0.025% (w/v), listed as mercuric chloride): 18%; % Inhibition of the elastase activity (pancreatic elastase; 0.125% (w/v)): 39.3%; % Inhibition of the elastase activity (pancreatic elastase; 0.125% (w/v), listed as mercuric chloride): 39%; Inhibition (of elastase, graded 0 to +++) (pancreatic elastase; 0.125% (w/v)): strongly inhibits"
"CC(O)CO (centres unmarked) [Propylene glycol, propylene glycol]",0%,2%,only very weak protective properties,6%,6%,13%,7%,
"CC(=O)Oc1c(C)c(C)c2c(c1C)CCC(C)(CCCC(C)CCCC(C)CCCC(C)C)O2 (centres unmarked) [Vitamin E acetate, vitamin E acetate]",,,,,,,,inhibition at 0.1 % [1]: 65%

# — patent US6146616A, “Antioxidant and/or antielastase composition based on lupine oil” (priority 1997, dated 2000)
